Assays:
[1] = system: endometriosis; details: cited from earlier work
[2] = system: endometriosis; test: clinical follow-up of about 1,000 patients treated with gestrinone implants; type: in vivo
Description: Research was conducted to assess the effectiveness of using the gestrinone implants described here for the treatment of endometriosis. About 1,000 patients with different degrees of the disease were followed up in clinical practice and the dose used was 1 to 3 implants. […] In these patients, treatment can be used only.

## C#C[C@]1(O)CC[C@H]2[C@@H]3CCC4=CC(=O)CCC4=C3C=C[C@@]21CC [gestrinone]
[1]
  tolerability, oral dose: up to 5 mg three times a week
[2]; mechanism of action, stated with an increase in free circulating testosterone
  carrier protein SHBG in the patient: reduction in the carrier protein SHBG
[2]; observed in practice: mood, libido, reasoning and decision making capacity, lean mass
  quality of life of patients: improves the quality of life of patients as a whole
[2]; result of SHBG reduction
  free circulating testosterone: increase in free circulating testosterone
